Test results reported in ChEMBL document CHEMBL1132029, “Specific, uncompetitive inhibition of beta-galactosidases by a 5,6-isopropylidenedioxyfuro[2,3-d]isoxazole-3-methanol derivative” (Bioorg Med Chem Lett, 1999).
Calls of active or inactive are those of the source. No cut-off for these calls is given here.

Experiments:
Beta-glucosidase A = Beta-glucosidase A (Caldicellulosiruptor saccharolyticus, UniProt P10482); assay: Inhibition of beta-glucosidase from Caldocellum saccharolyticum
Beta-galactosidase = target: T1, Beta-galactosidase (Aspergillus niger, UniProt P29853); assay: Inhibition of beta-galactosidase from Aspergillus niger
T1 sequence (P29853 whole entry): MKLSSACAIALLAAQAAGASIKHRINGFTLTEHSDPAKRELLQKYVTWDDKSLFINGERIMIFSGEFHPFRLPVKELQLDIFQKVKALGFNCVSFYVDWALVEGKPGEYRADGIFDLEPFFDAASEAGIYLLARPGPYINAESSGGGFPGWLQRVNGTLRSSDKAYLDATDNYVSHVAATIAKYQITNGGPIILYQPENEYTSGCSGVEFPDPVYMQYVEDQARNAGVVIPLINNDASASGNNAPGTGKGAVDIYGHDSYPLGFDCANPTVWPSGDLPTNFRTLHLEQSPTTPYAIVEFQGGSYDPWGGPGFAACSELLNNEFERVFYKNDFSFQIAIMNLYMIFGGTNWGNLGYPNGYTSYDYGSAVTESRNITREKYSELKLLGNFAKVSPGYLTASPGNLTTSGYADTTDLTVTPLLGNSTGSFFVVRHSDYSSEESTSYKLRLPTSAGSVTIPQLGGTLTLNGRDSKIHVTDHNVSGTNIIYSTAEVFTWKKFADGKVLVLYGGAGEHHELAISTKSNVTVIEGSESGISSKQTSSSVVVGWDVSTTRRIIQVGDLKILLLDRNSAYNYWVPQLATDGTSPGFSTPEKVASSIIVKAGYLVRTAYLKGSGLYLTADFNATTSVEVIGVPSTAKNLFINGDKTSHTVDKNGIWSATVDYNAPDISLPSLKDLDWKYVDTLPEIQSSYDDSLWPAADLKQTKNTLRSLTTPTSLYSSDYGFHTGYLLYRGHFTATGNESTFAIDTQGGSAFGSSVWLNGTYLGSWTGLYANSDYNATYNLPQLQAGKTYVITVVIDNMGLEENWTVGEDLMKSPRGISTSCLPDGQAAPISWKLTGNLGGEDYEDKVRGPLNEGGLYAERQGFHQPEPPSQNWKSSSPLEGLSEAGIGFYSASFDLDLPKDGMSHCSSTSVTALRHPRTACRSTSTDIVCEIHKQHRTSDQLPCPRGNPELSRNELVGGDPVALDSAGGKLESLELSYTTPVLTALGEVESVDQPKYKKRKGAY

[1] = target: Beta-glucosidase A (Caldicellulosiruptor saccharolyticus) (UniProt P10482); settings: 1 mM
Target sequence in this assay (P10482 whole entry): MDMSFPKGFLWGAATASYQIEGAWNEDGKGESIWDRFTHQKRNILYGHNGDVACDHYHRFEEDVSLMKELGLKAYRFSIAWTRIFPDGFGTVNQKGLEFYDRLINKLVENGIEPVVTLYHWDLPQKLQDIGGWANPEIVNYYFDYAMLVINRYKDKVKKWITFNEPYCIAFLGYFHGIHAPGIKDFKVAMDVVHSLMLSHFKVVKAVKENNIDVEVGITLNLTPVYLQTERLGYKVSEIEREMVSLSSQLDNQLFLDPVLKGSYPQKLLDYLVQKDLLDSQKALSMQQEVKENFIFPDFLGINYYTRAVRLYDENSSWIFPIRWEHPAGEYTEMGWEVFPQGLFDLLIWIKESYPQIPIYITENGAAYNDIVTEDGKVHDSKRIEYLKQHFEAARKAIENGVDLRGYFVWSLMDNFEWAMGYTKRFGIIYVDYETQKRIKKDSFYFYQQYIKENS

[2] = target: T2, Beta-galactosidase (Aspergillus niger) (UniProt P29853); settings: 1 mM
T2 sequence (whole entry): T1 sequence (P29853 whole entry)

[3] = target: Beta-glucosidase A (Caldicellulosiruptor saccharolyticus) (UniProt P10482); assay: Inhibitory activity against beta-glucosidase from Caldocellum saccharolyticum at a concentration of 1 mM; No activity
Target sequence in this assay (P10482 whole entry): as above

[4] = target: T2, Beta-galactosidase (Aspergillus niger); assay: Inhibitory activity against beta-galactosidase from Aspergillus niger at a concentration of 1 mM; No activity
[5] = Inhibitory activity against beta-galactosidase from jack beans at a concentration of 1 mM; No activity; settings: Canavalia ensiformis
[6] = Inhibitory activity against beta-galactosidase from Aspergillus oryzae at a concentration of 1 mM; No activity
[7] = Inhibitory activity against rice Alpha-galactosidase at concentration 1 mM
[8] = target: Beta-glucosidase A (Caldicellulosiruptor saccharolyticus) (UniProt P10482); assay: Inhibitory activity against beta-glucosidase from Caldocellum saccharolyticum at a concentration of 1 mM; No activity
Target sequence in this assay (P10482 whole entry, looked up): as the sequence (P10482 whole entry) above

[9] = Inhibitory activity against beta-galactosidase from jack beans […]; No activity; settings: Canavalia ensiformis

Sequence of Beta-glucosidase A (P10482 whole entry): as above

Structure (SMILES)	Activity [3]	Activity [4]	Activity [5]	Activity [6]	Activity [8]	also measured
CC1(C)O[C@@H]2O[C@H]3C(CO)=NO[C@H]3[C@@H]2O1	–	–	–	–	–	IC50 (Beta-glucosidase A): 550 µM; Ki (Beta-glucosidase A): 5 µM; IC50 (Beta-galactosidase): 43 µM; Ki (Beta-galactosidase): 18 µM; inhibition [1]: 67%; inhibition [2]: 14%
OCC1=NO[C@H]2[C@H](O)C(O)O[C@@H]12 (stereo not given in full)	inactive	inactive	inactive	inactive	–	inhibition [7]: 59%
CC1(C)O[C@H]2O[C@@H]3C(C4N[C@@H](c5ccccc5)[C@H](c5ccccc5)N4)=NO[C@@H]3[C@H]2O1	–	inactive	inactive	inactive	inactive	–
CCOC(OCC)C1=NO[C@H]2[C@H](O)C(O)O[C@@H]12 (stereo not given in full)	–	inactive	inactive	inactive	inactive	–
CC1(C)O[C@@H]2O[C@H]3C(C4N[C@@H](c5ccccc5)[C@H](c5ccccc5)N4)=NO[C@H]3[C@@H]2O1	–	inactive	–	inactive	inactive	Activity [9]: inactive

Further lines, with some results ahead:

Activity [3]	Activity [4]	Activity [5]	Activity [6]	Activity [8]	Structure (SMILES)	also measured
inactive	inactive	inactive	inactive	–	COCOCC1=NO[C@H]2[C@@H]3OC(C)(C)O[C@@H]3O[C@@H]12	–
inactive	inactive	inactive	inactive	–	COCC1=NO[C@H]2[C@@H]3OC(C)(C)O[C@@H]3O[C@@H]12	–
–	inactive	inactive	inactive	inactive	CC1(C)O[C@@H]2O[C@H]3C(C=O)=NO[C@H]3[C@@H]2O1	–
